Test results reported in patent EP0552223B1, “USE OF BENZENE DERIVATIVES AS CHARGE TRANSFER MEDIATORS” (NOVO NORDISK A/S, priority 1990, dated 1992).
Where a name gives a salt, the structure may show the parent alone.

Legend:
[1] = target: T1, Glucose oxidase (GOD) (E.C.1.1.3.4.) (Aspergillus niger, UniProt P13006); test: Cyclic voltammetry of GOD-graphite/paraffin pasta electrode containing the mediator; format: biochemical; conditions: Ag/AgCl ref.
Method: • 1) A paste containing GOD-immobilized graphite, paraffin and mediator is prepared. If the mediator has a big solubility in paraffin then 10 mg of mediator is used per ml of paraffin. If the mediator has a little solubility in paraffin then 50 mg of crystals are added per ml of paraffin in order to obtain a homogeneous mixture before graphite is added. The paste obtained is filled into sticks. • 2) The activity of the paste is determined in a cyclic voltametri equipment where the current is measured as a function of the potential (CV sweep). Five concentrations of glucose are measured, i.e., 0, 5, 10, 15 and 20 mM. Based upon the results obtained, the following is evaluated: • a) whether the mediator can be oxidized and reduced by the graphite electrode, • b) whether the mediator can be reduced of GOD, • c) the optimal potential for the electorde to be used, • d) whether a lineary response as a function of the concentration of glucose can be obtained using the concentration of mediator in question, • e) whether the concentration of the mediator can be optimized. • 3) The response as a function of time at the optimal potential is to be measured. The time interval within which the response represents a stable response for the concentration of glucose is to be evaluated. • 4) The stability of the mediator in the paste question is determined.
(§1) Glucose oxidase (GOD) (E.C.1.1.3.4.) was immobilized on graphite particles by the following procedure: 10 g of graphite was oxidized in air at 100°C for 24 hours. The surface oxidized graphite particles were activated with 500 mg of 1-cyclohexyl-3-(2-morpholinoethyl)carbodiimide metho-p-toluenesulfonate in 100 ml of 0.1 M acetate buffer (pH 4.76) for 2 hours, then washed with distilled water until an approximately neutral pH value and dried. The activated graphite was mixed with 30 ml of 0.01 phosphate buffer (pH 7.3) containing 80,000 IU GOD and 4% glutaraldehyde for 16 hours at 4°C, dried and sieved through a 48 mesh to obtain uniform particles.
(§2) 1 g of paraffin oil containing 5% Methylene green (4-nitro-3,7-bis(dimethylamino)phenothiazine) was mixed carefully with 2 g of GOD modified graphite to a uniform pasta.
(§3) The pasta was filled into a plastic rod in which it was possible to cut a thin cross-sectional slice to introduce a new well-defined electrode area. Before each measurement, the electrode surface was renewed. The working electrode area used was 3 mm^2.
In the study of the working electrode, an Ag auxiliary electrode and an Ag/AgCl reference electrode was used. In a cyclic voltammogram, a catalytic current from the reoxidation of the mediator was observed beginning at -50 mV and being stable between 50 and 400 mV. The current was proportional to the concentration of glucose used.
(§4) Data in the table are obtained using the same procedure as in Example 1.

[2] = target: T1, Glucose oxidase (GOD) (E.C.1.1.3.4.); test: Chronoamperometry of GOD-graphite/paraffin pasta electrode containing the mediator (glucose measurement); format: biochemical; conditions: for Working potential: Ag/AgCl ref.; for SD% of 100 measurement / Signal to noice ration: at 7mM glucose; for Linearity: glucose
Method: as §1, §2, §3
Chronoamperometry was preformed at 100 mV using the integrated current from 30 to 60 seconds after applying the potential. A linearity up to 40 mM glucose was obtained. The current was 500 nA/(sec*mM). The signal was not affected by the oxygen concentration in the solution. Reference pasta without Methylene green was not affected by different glucose concentrations.
as §4

[3] = Redox potential of the mediator at GC electrode; format: physicochemical; conditions: Ag/AgCl ref.; in mV (unit assumed)
From the text: as §4

[4] = Stability test of pasta rods with selected mediators stored at different temperatures; format: physicochemical; design: unit not given here
Method: The stability of a paste with a certain mediator can be determined using the following method:
The mediator is dissolved or mixed with paraffin and, thereafter, the enzyme coupled to graphite is added. The mixture is homogenized giving a paste. This paste is filled into electrode holders of plast giving so-called sticks. These sticks are tested using 0 and 10 mM glucose standards in order to characterize the activity of these sticks in relation to glucose. Thereafter, the paste containing sticks are stored at a constant temperature, for example, 4, 20, 35 and 54°C. After a certain period of time, for example 1 month, the sticks are tested using the 0 and 10 mM glucose standards and the activities measured are compared with the activity measured at originally.
Data are obtained using the same basis procedure as in Example 1. Rods with selected mediators were stored at different temperature to accelerate processes which could give new analytical performance.

T1 sequence (P13006 17-605, species assumed): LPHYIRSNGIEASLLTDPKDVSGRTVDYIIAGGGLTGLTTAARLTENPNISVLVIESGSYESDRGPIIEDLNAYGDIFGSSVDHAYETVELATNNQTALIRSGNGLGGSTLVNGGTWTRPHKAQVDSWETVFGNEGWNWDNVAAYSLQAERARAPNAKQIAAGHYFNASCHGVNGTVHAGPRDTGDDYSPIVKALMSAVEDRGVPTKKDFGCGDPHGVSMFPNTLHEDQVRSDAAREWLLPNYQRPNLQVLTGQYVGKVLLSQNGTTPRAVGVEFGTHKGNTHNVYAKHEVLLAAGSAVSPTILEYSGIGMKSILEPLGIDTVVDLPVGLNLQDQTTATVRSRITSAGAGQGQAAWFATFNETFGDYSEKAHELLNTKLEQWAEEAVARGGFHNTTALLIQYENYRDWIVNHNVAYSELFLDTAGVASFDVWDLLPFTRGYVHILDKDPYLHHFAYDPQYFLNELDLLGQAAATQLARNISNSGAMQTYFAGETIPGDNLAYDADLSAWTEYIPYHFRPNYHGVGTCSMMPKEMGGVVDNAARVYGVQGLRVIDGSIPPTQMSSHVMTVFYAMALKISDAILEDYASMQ

| SMILES | Catalytic interval beginning at [1] | Working potential [2] | SD% of 100 measurement [2] | Signal to noice ration [2] | Linearity [2] | Redoxpotential at GCElectrode [3] | activity of rod in stability test ([4]; 4°C, listed as a, Time 0) | activity of rod in stability test ([4]; 4°C, listed as b, Time 0) | activity of rod in stability test ([4]; 20°C, listed as a, Time 0) | activity of rod in stability test ([4]; 20°C, listed as b, Time 0) | activity of rod in stability test ([4]; 35°C, listed as a, Time 0) | activity of rod in stability test ([4]; 35°C, listed as b, Time 0) | activity of rod in stability test ([4]; 54°C, listed as a, Time 0) | activity of rod in stability test ([4]; 54°C, listed as b, Time 0) | further results |
| --- | --- | --- | --- | --- | --- | --- | --- | --- | --- | --- | --- | --- | --- | --- | --- |
| c1cc(N2CCOCC2)ccc1N1CCOCC1 [BMP, 1,4-dimorpholinobenzene] | 50 mV | 200 | 6.5% | 5.6 | 20 mM | 246 | 20.2 | 21.3 | 18.5 | 20.5 | 20.0 | 16.7 | 18.4 | 20.5 | activity of rod in stability test ([4]; 4°C, listed as a, Time 72): 21.2; activity of rod in stability test ([4]; 4°C, listed as b, Time 72): 19.3; activity of rod in stability test ([4]; 20°C, listed as a, Time 72): 21.4; activity of rod in stability test ([4]; 20°C, listed as b, Time 72): 23.3; activity of rod in stability test ([4]; 35°C, listed as a, Time 72): 18.0; activity of rod in stability test ([4]; 35°C, listed as b, Time 72): 20.3; activity of rod in stability test ([4]; 54°C, listed as a, Time 72): 15.0; activity of rod in stability test ([4]; 54°C, listed as b, Time 72): 14.6 |
| c1cc(N2CCCCC2)ccc1N1CCCCC1 [BPP, 1,4-dipiperidinobenzene] | 0 mV | 150 | 3.5% | 4.7 | 20 mM | 141 | 12.3 | 11.1 | 10.0 | 10.5 | 9.1 | 10.6 | 11.1 | 10.3 | activity of rod in stability test ([4]; 4°C, listed as a, Time 78): 12.4; activity of rod in stability test ([4]; 4°C, listed as b, Time 78): 13.7; activity of rod in stability test ([4]; 20°C, listed as a, Time 78): 11.0; activity of rod in stability test ([4]; 20°C, listed as b, Time 78): 11.1; activity of rod in stability test ([4]; 35°C, listed as a, Time 78): 8.7; activity of rod in stability test ([4]; 35°C, listed as b, Time 78): 10.4; activity of rod in stability test ([4]; 54°C, listed as a, Time 78): 6.7; activity of rod in stability test ([4]; 54°C, listed as b, Time 78): 5.6 |
| C[N+](C)=c1ccc2nc3c(ccc4ccccc43)oc-2c1 [MB, 7-dimethylamino-1,2-benzophenoxazinium salts] | -50 mV | 100 | 6.5% | 4.8 | 40 mM | -175 | – | – | – | – | – | – | – | – | – |
